{"source": "patent US11590131B2", "about": "“Compositions and methods for treating galactosemia” (Applied Therapeutics, Inc., priority 2017, dated 2023)", "assay_type_in_all_cases": "in vivo, rat", "key": {"GALT-null rats [1]": {"tested_on": "GALT-null rats", "experiment": "Qualitative visual scoring of cataracts (0-3 scale) in GALT null rats", "from_the_text": "Rats, with impaired GALT activity due to genetic modification (GALT null), were used as a model of galactosemia. This rat model mirrors human classic galactosemia in some important ways. The rats develop physical characteristics including cataracts follow exposure to galactose, growth abnormalities, and neurological/cognitive abnormalities, which mirror abnormalities in human patients and can be quantified. The rats also have biochemical characteristics that mirror human disease including elevated levels of galactose and galactose metabolites, including galactitol and Gal1), in blood and tissues. Rats were generated from heterozygote crosses (heterozygous M3 GALT null strain representing classic galactosemia). […] Aldose reductase inhibitor (Compound A or Compound B), suspended in Gerber formula, was administered orally at about 12-hour intervals (BID) at 1 mg inhibitor/gram pup weight (=1000 mg/kg) for each dose. Before use, drug was stored at −20° C. in a bottle or tubes wrapped in aluminum foil. Just before each feeding an aliquot of drug was re-suspended in formula, mixed well, and pipetted into individual tubes to be fed to the pups (volume calculated per pup weight measured that morning). All placebo and drug tubes of formula were warmed to 37° C. immediately before feeding. Placebo and drug were fed to pups by hand using a syringe and tubing. Pups receiving drug also were fed a small additional volume of Gerber formula that had been used to wash the tube and syringe immediately after the drug feeding. To motivate eating, pups were removed from their mother (to prevent nursing) and maintained in nests in a humidified incubator for about 2 hours at 35-37° C. prior to each feeding. […] In the first part of the study, cataracts were scored visually by a blinded rater on a 3 point scale, with zero being no cataracts present (absent), 1 being mild, 2 being moderate and 3 being severe cataracts present. In the second part of the study, eyes were dissected after euthanization, photographed via digital camera, and cataracts were quantified via software"}, "GALT-null rats [2]": {"tested_on": "GALT-null rats", "experiment": "Metabolite levels (galactitol, galactose, Gal1P) by HPLC in liver, brain and plasma of GALT null rats", "from_the_text": "Rats, with impaired GALT activity due to genetic modification (GALT null), were used as a model of galactosemia. This rat model mirrors human classic galactosemia in some important ways. The rats develop physical characteristics including cataracts follow exposure to galactose, growth abnormalities, and neurological/cognitive abnormalities, which mirror abnormalities in human patients and can be quantified. The rats also have biochemical characteristics that mirror human disease including elevated levels of galactose and galactose metabolites, including galactitol and Gal1), in blood and tissues. Rats were generated from heterozygote crosses (heterozygous M3 GALT null strain representing classic galactosemia). […] Aldose reductase inhibitor (Compound A or Compound B), suspended in Gerber formula, was administered orally at about 12-hour intervals (BID) at 1 mg inhibitor/gram pup weight (=1000 mg/kg) for each dose. Before use, drug was stored at −20° C. in a bottle or tubes wrapped in aluminum foil. Just before each feeding an aliquot of drug was re-suspended in formula, mixed well, and pipetted into individual tubes to be fed to the pups (volume calculated per pup weight measured that morning). All placebo and drug tubes of formula were warmed to 37° C. immediately before feeding. Placebo and drug were fed to pups by hand using a syringe and tubing. Pups receiving drug also were fed a small additional volume of Gerber formula that had been used to wash the tube and syringe immediately after the drug feeding. To motivate eating, pups were removed from their mother (to prevent nursing) and maintained in nests in a humidified incubator for about 2 hours at 35-37° C. prior to each feeding. Separate syringes were used for placebo and drug. Pups were wrapped in fleece during feeding, which lasted about 2-5 minutes each. Lysates for metabolite analysis were prepared as follows: 50-100 mg pieces of previously frozen liver or brain were homogenized by grinding for 30 seconds using a Teflon micropestle and handheld micropestle motor (Kimble Chase Life Science and Research Products LLC) in 125 μl ice-cold HPLC-grade water. Metabolites were separated and quantified by HPLC (See, e.g., Daenzer, et al. Dis. Model Mech. 2016, 9(11):1375-1382)). Galactitol, inositol, and glucose were quantified using the same HPLC conditions described to quantify galactose by (Daenzer, 2016). Metabolite levels were normalized to the total area of peaks detected by the relevant column and elution run for that sample, minus the peaks that most distinguished homozygous M3/M3 samples from controls. Specifically, metabolites separated on the MA1 column (galactitol, inositol, galactose and glucose) were normalized to total peak area minus galactose and galactitol, and metabolites separated on the PA10 column (galactose-1P) were normalized to total peak area minus galactose and galactose-1P."}, "GALT-null rats [3]": {"tested_on": "GALT-null rats", "experiment": "Digital photographic quantification of cataracts in GALT null rats", "from_the_text": "Rats, with impaired GALT activity due to genetic modification (GALT null), were used as a model of galactosemia. This rat model mirrors human classic galactosemia in some important ways. The rats develop physical characteristics including cataracts follow exposure to galactose, growth abnormalities, and neurological/cognitive abnormalities, which mirror abnormalities in human patients and can be quantified. The rats also have biochemical characteristics that mirror human disease including elevated levels of galactose and galactose metabolites, including galactitol and Gal1), in blood and tissues. Rats were generated from heterozygote crosses (heterozygous M3 GALT null strain representing classic galactosemia). […] Just before each feeding an aliquot of drug was re-suspended in formula, mixed well, and pipetted into individual tubes to be fed to the pups (volume calculated per pup weight measured that morning). […] In the first part of the study, cataracts were scored visually by a blinded rater on a 3 point scale, with zero being no cataracts present (absent), 1 being mild, 2 being moderate and 3 being severe cataracts present. In the second part of the study, eyes were dissected after euthanization, photographed via digital camera, and cataracts were quantified via software"}}, "note": "“Also recorded” adds a separate entry of the source.", "data": [{"smiles": "O=C(O)Cc1nn(Cc2nc3cc(C(F)(F)F)ccc3s2)c(=O)c2nccnc12", "note": "[Compound A]", "values": [{"measurement": "qualitative assessment of cataracts (scale of 0-3)", "setting": "GALT-null rats [1]; day nine of life, versus placebo, FIG. 2A", "value": "no cataracts"}, {"measurement": "reduction of brain galactitol levels compared to placebo", "setting": "GALT-null rats [2]; day 9", "value": 40, "unit": "%"}, {"measurement": "reduction of liver galactitol levels compared to placebo", "setting": "GALT-null rats [2]; day 9", "value": 87, "unit": "%"}, {"measurement": "reduction of brain galactitol levels compared to placebo", "setting": "GALT-null rats [2]; day 15-18", "value": 57, "unit": "%"}, {"measurement": "reduction of liver galactitol levels compared to placebo", "setting": "GALT-null rats [2]; day 15-18", "value": 57, "unit": "%"}, {"measurement": "cataracts (qualitative initial study and digitally quantified follow-on study)", "setting": "GALT-null rats [3]; GALT null rats, 1,000 mg/kg BID or 250 mg/kg BID in follow-on study", "value": "reduced cataracts"}]}, {"smiles": "O=C(O)Cc1nn(Cc2cc3cc(C(F)(F)F)ccc3s2)c(=O)c2cscc12", "note": "[Compound B]", "values": [{"measurement": "qualitative assessment of cataracts (0-3 scale)", "setting": "GALT-null rats [1]; day 10 of life, FIG. 2C", "value": "had cataracts"}, {"measurement": "qualitative assessment of cataracts (0-3 scale)", "setting": "GALT-null rats [1]; day 22 of life, placebo average severity 1.5, FIG. 2D", "value": "did not have cataracts; also recorded: cataracts were not present"}, {"measurement": "galactitol levels in liver, brain and plasma", "setting": "GALT-null rats [2]; day 10 of life, FIG. 3A", "value": "normal or near normal levels"}, {"measurement": "galactose levels", "setting": "GALT-null rats [2]; day 10 of life, FIG. 3B", "value": "did not further increase"}, {"measurement": "Gal1P levels", "setting": "GALT-null rats [2]; day 10 of life, FIG. 3C", "value": "did not further increase"}, {"measurement": "digital quantitative analysis of cataracts (score)", "setting": "GALT-null rats [3]; GALT null rats, day 22 of life, FIG. 2B", "value": "the same score as wild type rats"}]}]}
